Data on eleven molecules can be found in patent US11091479B2, “Triazolopyridin-3-ones or their salts and pharmaceutical compositions comprising the same” (YUHAN CORPORATION, priority 2018, dated 2021).

Counter-ions that a name gives are not always drawn.

Holding throughout (format): biochemical
One assay deals with T1, recombinant human VAP-1 (Homo sapiens, UniProt Q16853).
T1 construct: purchased R&D systems
T1 sequence (Q16853 1-763): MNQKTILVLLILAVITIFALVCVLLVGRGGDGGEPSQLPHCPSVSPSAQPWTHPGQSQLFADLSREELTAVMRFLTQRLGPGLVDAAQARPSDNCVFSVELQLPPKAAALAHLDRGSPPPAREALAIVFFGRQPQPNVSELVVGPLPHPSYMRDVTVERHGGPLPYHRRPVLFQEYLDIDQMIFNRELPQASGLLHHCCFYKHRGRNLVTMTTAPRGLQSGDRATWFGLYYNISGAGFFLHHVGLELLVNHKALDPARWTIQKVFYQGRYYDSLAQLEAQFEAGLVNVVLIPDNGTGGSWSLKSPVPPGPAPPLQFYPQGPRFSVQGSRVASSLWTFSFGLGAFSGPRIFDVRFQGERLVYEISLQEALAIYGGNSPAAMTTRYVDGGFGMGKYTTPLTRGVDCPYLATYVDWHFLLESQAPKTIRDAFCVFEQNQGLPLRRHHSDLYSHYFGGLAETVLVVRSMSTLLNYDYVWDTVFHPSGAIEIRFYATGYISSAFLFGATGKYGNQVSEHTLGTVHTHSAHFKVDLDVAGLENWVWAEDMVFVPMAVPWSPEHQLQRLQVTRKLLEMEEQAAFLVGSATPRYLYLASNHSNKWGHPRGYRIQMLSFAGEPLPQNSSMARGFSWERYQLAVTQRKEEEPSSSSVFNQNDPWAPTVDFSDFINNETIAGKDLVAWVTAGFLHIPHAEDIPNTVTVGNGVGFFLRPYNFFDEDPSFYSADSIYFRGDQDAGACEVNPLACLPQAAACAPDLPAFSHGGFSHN
In words: Activity on recombinant human VAP-1, HRP-coupled Amplex Red hydrogen peroxide assay, benzylamine substrate. To be noted: 30 min incubation at 37° C., 1 mM benzylamine, read-out: Inhibitory Activity (IC50, nM) human VAP-1. The procedure: (§1) The compounds according to the present technology were evaluated in terms of activity on recombinant human VAP-1 (R&D systems) by measuring the level of hydrogen peroxide in horseradish peroxidase (HRP)-coupled reaction using Amplex Red Hydrogen Peroxide Assay Kit (Molecular Probes, Invitrogen, USA). The experiment was carried out at room temperature using benzylamine as a substrate. In the HRP-coupled reaction, hydrogen peroxide oxidation of 10-acetyl-3,7-dihydroxyphenoxazine (Amplex Red reagent) produces resorufin, which is a highly fluorescent compound. Briefly, the test compound was dissolved in dimethyl sulfoxide (DMSO) at a concentration of 20 mM. The dose-response assessment was made by 1:3 serial dilution in DMSO, thereby creating a 8 point curve. The concentration of the upper part was controlled according to the efficacy of the compounds, followed by dilution with a reaction buffer solution to obtain a final DMSO concentration of less than 1%. To each well of a 96 black well plate, human VAP-1 purified in 50 mM sodium phosphate buffer solution (pH7.4) was added. The test compounds dissolved in DMSO were incubated with the human VAP-1 enzymes at 37° C. for 30 minutes. After 30-minute incubation, each well was added with a reaction mixture containing 200 uM Amplex Red reagent prepared from 50 mM sodium phosphate buffer solution (pH 7.4), 1 mM benzylamine, and 1 U/mL HRP. Fluorescence intensity was measured at several time points during 1-2 hours using a microplate reader (Flexstation3, Molecular Devices) under the wavelength condition exciting at 544 nm and reading the emission at 590 nm. The inhibitory effect of the compounds was measured as a decrease (%) in the signal rate as compared to the control group without any inhibitor (only diluted DMSO). Data was fixed to a logistic model with four variables and IC50 value was calculated using GraphPad Prism program.

Assay [1] has as its target T2, recombinant human MAO-A (monoamine oxidase-A) (Homo sapiens, UniProt P21397).
T2 construct: purchased Sigma-Aldrich
T2 sequence (P21397 1-527): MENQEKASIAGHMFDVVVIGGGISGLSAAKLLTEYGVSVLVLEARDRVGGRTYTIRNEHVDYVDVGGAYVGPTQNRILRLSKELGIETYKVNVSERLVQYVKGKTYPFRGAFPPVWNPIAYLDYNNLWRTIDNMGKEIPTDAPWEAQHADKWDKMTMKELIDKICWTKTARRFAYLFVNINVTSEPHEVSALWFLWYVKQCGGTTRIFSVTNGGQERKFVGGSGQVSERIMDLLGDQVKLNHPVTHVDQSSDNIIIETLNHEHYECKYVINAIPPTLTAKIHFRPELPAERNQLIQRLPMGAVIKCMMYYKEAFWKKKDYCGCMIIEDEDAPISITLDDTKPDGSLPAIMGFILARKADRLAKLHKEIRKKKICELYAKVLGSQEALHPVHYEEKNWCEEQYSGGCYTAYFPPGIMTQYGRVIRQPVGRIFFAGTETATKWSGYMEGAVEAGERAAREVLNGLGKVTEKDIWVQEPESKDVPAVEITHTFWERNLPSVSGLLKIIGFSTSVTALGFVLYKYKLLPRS
Description: Activity on recombinant human MAO-A, method similar to VAP-1 assay, 0.5 mM tyramine substrate. The settings on record: read-out: Inhibitory Activity (IC50, nM) MAO-A. As to the method:
as §1
(§2) In addition, the compounds according to the present technology were evaluated in terms of activity on a recombinant human MAO-A (monoamine oxidase-A, Sigma-Aldrich) and a recombinant human MAO-B(monoamine oxidase-B, Sigma-Aldrich) by using as substrates, 0.5 mM tyramine and 1 mM benzylamine, respectively, with a method similar to the activity evaluation method for recombinant human VAP-1. The compounds according to the present technology were also evaluated in terms of activity on a recombinant human DAO (diamine oxidase, R&D systems) by using as a substrate 1 mM putrescine with a method similar to the activity evaluation method for recombinant human VAP-1.

Assay [2] has as its target T3, recombinant human MAO-B (monoamine oxidase-B) (Homo sapiens, UniProt P27338).
T3 construct: purchased Sigma-Aldrich
T3 sequence (P27338 1-520): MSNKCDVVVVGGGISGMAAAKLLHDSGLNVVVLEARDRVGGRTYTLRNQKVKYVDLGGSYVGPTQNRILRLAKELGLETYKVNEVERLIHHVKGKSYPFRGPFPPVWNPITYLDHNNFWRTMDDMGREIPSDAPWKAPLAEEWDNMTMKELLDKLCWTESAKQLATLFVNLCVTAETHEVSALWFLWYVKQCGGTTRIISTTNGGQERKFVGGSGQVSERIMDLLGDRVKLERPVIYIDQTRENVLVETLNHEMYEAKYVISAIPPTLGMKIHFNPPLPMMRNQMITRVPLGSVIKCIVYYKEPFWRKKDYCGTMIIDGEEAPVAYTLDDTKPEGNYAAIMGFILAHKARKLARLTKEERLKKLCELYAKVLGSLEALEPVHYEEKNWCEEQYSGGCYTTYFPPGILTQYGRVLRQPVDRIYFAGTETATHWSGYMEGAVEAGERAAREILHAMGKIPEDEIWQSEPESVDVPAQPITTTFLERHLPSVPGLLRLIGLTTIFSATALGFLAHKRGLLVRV
Description: Activity on recombinant human MAO-B, method similar to VAP-1 assay, 1 mM benzylamine substrate. To be noted: read-out: Inhibitory Activity (IC50, nM) MAO-B. As to the method:
as §1, §2

The target in assay [3] is T4, recombinant human DAO (diamine oxidase) (Homo sapiens, UniProt P19801).
T4 construct: purchased R&D systems
T4 sequence (P19801 20-751): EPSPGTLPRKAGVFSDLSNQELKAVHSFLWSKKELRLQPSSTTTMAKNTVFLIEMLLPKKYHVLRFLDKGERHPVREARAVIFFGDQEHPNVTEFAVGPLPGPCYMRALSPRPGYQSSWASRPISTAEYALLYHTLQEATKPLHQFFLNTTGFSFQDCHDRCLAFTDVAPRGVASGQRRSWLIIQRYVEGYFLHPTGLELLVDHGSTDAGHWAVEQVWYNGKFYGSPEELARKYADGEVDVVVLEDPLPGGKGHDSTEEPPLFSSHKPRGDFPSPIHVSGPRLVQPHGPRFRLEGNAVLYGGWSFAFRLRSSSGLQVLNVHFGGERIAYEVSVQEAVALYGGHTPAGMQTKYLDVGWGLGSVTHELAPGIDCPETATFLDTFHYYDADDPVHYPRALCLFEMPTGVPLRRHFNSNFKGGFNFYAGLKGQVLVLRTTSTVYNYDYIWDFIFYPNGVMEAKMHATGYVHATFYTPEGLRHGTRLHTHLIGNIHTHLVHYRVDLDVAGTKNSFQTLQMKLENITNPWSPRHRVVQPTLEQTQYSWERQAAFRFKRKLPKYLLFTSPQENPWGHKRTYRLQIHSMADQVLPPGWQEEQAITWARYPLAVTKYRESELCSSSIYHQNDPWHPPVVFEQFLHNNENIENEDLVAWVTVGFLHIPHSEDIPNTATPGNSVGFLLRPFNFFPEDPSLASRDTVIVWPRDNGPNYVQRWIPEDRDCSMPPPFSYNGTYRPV
Description: Activity on recombinant human DAO, method similar to VAP-1 assay, 1 mM putrescine substrate. The settings on record: read-out: Inhibitory Activity (IC50, nM) DAO. As to the method:
as §1, §2

Take `Cn1cc(C#Cc2ccn3c(=O)n(CC(CN)=C(F)F)nc3c2)cn1` [Example 56, 2-[2-(aminomethyl)-3,3-difluoro-allyl]-7-[2-(1-methylpyrazol-4-yl)ethynyl]-[1,2,4]triazolo[4,3-a]pyridin-3-one trifluoroacetate]: the half-inhibitory concentration (IC50) (in general, the concentration needed to halve the response being measured) on recombinant human VAP-1 is 1 nM; in assay [1] it was over 100000 nM; in assay [2] it was 2500 nM; in assay [3] it was 6300 nM.
Take `NC/C(=C\F)Cn1nc2cc(-c3ccc(C(F)(F)F)nc3)ccn2c1=O` [Example 30, 2-[(2E)-2-(aminomethyl)-3-fluoroprop-2-en-1-yl]-7-[6-(trifluoromethyl)pyridin-3-yl][1,2,4]triazolo[4,3-a]pyridin-3(2H)-one hydrochloride]: the IC50 on recombinant human VAP-1 came to 0.3 nM; in assay [1], 68000 nM; in assay [2], 8.4 nM; in assay [3], 1.1 nM.
The corresponding values for `NC/C(=C\F)Cn1nc2cc(-c3cccc(-c4cc[nH]n4)c3)ccn2c1=O` [Example 26, 2-[(2E)-2-(aminomethyl)-3-fluoroprop-2-en-1-yl]-7-[3-(1H-pyrazol-3-yl)phenyl][1,2,4]triazolo[4,3-a]pyridin-3(2H)-one hydrochloride] are 0.2 nM, over 100000 nM, under 10 nM and 1.9 nM.
In the case of `NC/C(=C\F)Cn1nc2ccc(-c3ccc(N4CCOCC4)nc3)cn2c1=O` [Example 11, 2-[(2E)-2-(aminomethyl)-3-fluoroprop-2-en-1-yl]-6-[6-(morpholin-4-yl)pyridin-3-yl][1,2,4]triazolo[4,3-a]pyridin-3(2H)-one hydrochloride], the IC50 on recombinant human VAP-1 was determined as 3.7 nM; in assay [2], 39 nM; in assay [3], 0.2 nM.
As to `NC/C(=C\F)Cn1nc2ccc(Br)cn2c1=O` [Example 1, 2-[(2E)-2-(aminomethyl)-3-fluoroprop-2-en-1-yl]-6-bromo[1,2,4]triazolo[4,3-a]pyridin-3(2H)-one hydrochloride], the IC50 at recombinant human VAP-1 was 87 nM; in assay [3] it was 100 nM.
For the molecule `CC(=O)Nc1ccc(-c2cccc3nn(C/C(=C/F)CN)c(=O)n23)cc1` [Example 18, N-[4-[2-[(2E)-2-(aminomethyl)-3-fluoroprop-2-en-1-yl]-3-oxo-2,3-dihydro[1,2,4]triazolo[4,3-a]pyridin-5-yl]phenyl]acetamide trifluoroacetate], the IC50 on recombinant human VAP-1 amounted to 90 nM.
Still for that read-out and setting: the value for `NC/C(=C\F)Cn1nc2cccc(-c3ccc(-c4ccon4)cc3)n2c1=O` [Example 19, 2-[(2E)-2-(aminomethyl)-3-fluoroprop-2-en-1-yl]-5-[4-(1,2-oxazol-3-yl)phenyl][1,2,4]triazolo[4,3-a]pyridin-3(2H)-one trifluoroacetate] was 38 nM.
On the same count and under the same terms, the value for `NC/C(=C\F)Cn1nc2cccc(-c3ccc4nonc4c3)n2c1=O` [Example 21, 2-[(2E)-2-(aminomethyl)-3-fluoroprop-2-en-1-yl]-5-(2,1,3-benzoxadiazol-5-yl)[1,2,4]triazolo[4,3-a]pyridin-3(2H)-one trifluoroacetate] was 150 nM.
Regarding `CC(=O)Nc1cc(-c2ccc3nn(C/C(=C/F)CN)c(=O)n3c2)ccn1` [Example 8, N-[4-[2-[(2E)-2-(aminomethyl)-3-fluoroprop-2-en-1-yl]-3-oxo-2,3-dihydro[1,2,4]triazolo[4,3-a]pyridin-6-yl]pyridin-2-yl]acetamide trifluoroacetate], the IC50 at recombinant human VAP-1 is 14 nM; in assay [3], under 100 nM.
As to `NC/C(=C\F)Cn1nc2cc(-c3ccc(N4CCOCC4)nc3)ccn2c1=O` [Example 33, 2-[(2E)-2-(aminomethyl)-3-fluoroprop-2-en-1-yl]-7-[6-(morpholin-4-yl)pyridin-3-yl][1,2,4]triazolo[4,3-a]pyridin-3(2H)-one hydrochloride], the IC50 stood at 0.4 nM on recombinant human VAP-1, 130 nM in assay [2] and 5.8 nM in assay [3].
With `NC/C(=C\F)Cn1nc2cccc(-c3ccc4c(c3)OCO4)n2c1=O` [Example 20, 2-[(2E)-2-(aminomethyl)-3-fluoroprop-2-en-1-yl]-5-(1,3-benzodioxol-5-yl)[1,2,4]triazolo[4,3-a]pyridin-3(2H)-one trifluoroacetate], the IC50 at recombinant human VAP-1 was over 100 nM.
